Measured values from patent publication US11207320B2, “Compositions and methods for cancer expressing PDE3A or SLFN12” (The Broad Institute, Inc., priority 2015, dated 2021).

Legend:
HeLa cells [1] = assay type: cell-based; details: 48 hours; for rescue of DNMDP cytotoxicity / competition with DNMDP: dose-response up to 10 μM, co-treated with DNMDP; for rescue of cell death induced by DNMDP, rank in bioactives screen: 20 μM compound + 30 nM DNMDP, 1600 compounds
Procedure: HeLa cells were co-treated with 30 nM DNMDP (the EC70 concentration) and 20 μM of each bioactive compound. Cell viability after 48-hour treatment was assessed by ATP consumption as described earlier.
1000 HeLa cells were plated in a 384-well plate in 40 μl of DMEM supplemented with 10% Fetal Bovine Serum and 1% Pen/Strep. 24 hours after plating, a compound-library of 1600 bioactive molecules (Pharmacon) was added at a concentration of 20 μM. In parallel to bioactive compound incubation, DNMDP was added to a final concentration of 30 nM and incubated for 48 hours. Cell viability was assessed as described in Compound library screening in NCI-H1734 and A549 cell lines.

HeLa cells [2] = assay: Compound sensitivity testing in cell lines (48 h viability); assay type: cell-based; details: HeLa
Procedure: 1500 NCI-H1734 or 1000 A549 cells were plated in a 384-well plate in 40 μl of RPMI supplemented with 10% Fetal Bovine Serum and 1% Pen/Strep. 24 hours after plating, a compound-library of 1924 small molecules was added at a concentration of 10 μM. Staurosporine was used a positive control for cytotoxicity at a concentration of 10 μM, and DMSO was used a negative control at a concentration of 1%. All compounds were incubated for 48 hours with indicated small molecules. After 48 hours, 384-well plates were removed from the incubator and allowed to cool to room temperature for 20 minutes. Cell viability was assessed by adding 40 μl of a 25% CELLTITERGLO® (Promega) in PBS with a THERMO COMBI™ or multichannel-pipette and incubated for 10 minutes. The luminescence signal was read using a Perkin-Elmer EnVision. Viability percentage was calculated by normalizing to DMSO controls.
1000 HeLa (DMEM), 1000 A549 (RPMI), 500 MCF-7 (DMEM), 4000 PC3 (F12-K), 1000 NCI-H2122 (RPMI) or 1500 NCI-H1563 (RPMI) cells were plated in a 384-well plate in 40 μl of corresponding growth media supplemented with 10% Fetal Bovine Serum. 24 hours after plating, indicated compounds were added at indicated concentrations and incubated for 48 hours. Cell viability was assessed as described in Compound library screening in NCI-H1734 and A549 cell lines.

PDE3A and SLFN12 = biological target: T1, PDE3A and SLFN12 (Homo sapiens, UniProt Q14432); assay: Validation of DNMDP-induced PDE3A protein interactions using immunoprecipitation and immunoblotting; assay type: cell-based; details: FIG. 20, affinity reagents, immunoblot
T1 construct: Endogenous PDE3A was immunoprecipitated; host or cells: HeLa
T1 sequence (Q14432 whole entry): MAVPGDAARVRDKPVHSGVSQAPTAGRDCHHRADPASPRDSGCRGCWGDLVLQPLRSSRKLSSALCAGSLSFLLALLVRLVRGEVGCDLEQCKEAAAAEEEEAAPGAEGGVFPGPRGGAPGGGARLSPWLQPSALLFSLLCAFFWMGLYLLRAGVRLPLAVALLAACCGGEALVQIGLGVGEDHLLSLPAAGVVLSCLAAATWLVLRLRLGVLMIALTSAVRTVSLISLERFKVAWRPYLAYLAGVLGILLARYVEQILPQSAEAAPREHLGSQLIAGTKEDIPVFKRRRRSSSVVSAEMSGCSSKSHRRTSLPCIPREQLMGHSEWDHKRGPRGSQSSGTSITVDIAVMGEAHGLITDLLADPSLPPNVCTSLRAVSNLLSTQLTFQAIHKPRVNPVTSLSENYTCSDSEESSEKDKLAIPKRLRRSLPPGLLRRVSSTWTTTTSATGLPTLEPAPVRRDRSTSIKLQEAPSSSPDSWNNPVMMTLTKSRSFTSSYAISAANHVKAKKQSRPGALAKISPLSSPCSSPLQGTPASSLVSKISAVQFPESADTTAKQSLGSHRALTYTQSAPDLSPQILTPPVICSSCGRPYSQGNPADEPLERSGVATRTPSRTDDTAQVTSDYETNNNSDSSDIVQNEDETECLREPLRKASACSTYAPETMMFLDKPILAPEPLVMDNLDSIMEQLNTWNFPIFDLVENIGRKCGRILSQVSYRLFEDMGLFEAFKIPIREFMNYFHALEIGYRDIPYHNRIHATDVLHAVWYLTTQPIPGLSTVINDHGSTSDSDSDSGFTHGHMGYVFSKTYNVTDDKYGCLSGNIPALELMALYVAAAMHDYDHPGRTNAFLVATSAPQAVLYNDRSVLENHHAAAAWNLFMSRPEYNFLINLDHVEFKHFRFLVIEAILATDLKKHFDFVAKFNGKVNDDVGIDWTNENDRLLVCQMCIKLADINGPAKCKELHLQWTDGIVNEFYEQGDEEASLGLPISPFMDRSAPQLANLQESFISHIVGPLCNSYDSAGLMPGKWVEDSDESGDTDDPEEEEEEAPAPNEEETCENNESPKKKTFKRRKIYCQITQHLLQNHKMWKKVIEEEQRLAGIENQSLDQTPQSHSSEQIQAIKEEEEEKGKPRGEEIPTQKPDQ
T1 sequence (Q8IYM2 whole entry partner): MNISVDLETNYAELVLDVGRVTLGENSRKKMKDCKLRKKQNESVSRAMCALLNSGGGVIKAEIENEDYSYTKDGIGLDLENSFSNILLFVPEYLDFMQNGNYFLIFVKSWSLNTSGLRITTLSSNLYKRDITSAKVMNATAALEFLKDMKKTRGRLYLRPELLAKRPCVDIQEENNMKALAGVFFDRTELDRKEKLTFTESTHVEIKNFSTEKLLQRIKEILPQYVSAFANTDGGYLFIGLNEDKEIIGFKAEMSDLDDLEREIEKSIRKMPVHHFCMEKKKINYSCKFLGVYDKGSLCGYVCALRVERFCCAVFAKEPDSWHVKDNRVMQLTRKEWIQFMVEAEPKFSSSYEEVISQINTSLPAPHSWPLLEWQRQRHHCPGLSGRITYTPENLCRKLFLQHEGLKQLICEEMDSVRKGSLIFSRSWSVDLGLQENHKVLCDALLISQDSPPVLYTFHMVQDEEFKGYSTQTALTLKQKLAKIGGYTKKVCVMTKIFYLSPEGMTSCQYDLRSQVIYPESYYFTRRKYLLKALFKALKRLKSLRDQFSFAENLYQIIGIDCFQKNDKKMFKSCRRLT
Procedure: FIG. 19 is an immunoblot showing that DNMDP induces interaction between PDE3A and SIRT7 and SLFN12 in HeLa cells. HeLa cells were transfected with indicated plasmids and treated with indicated compounds with a final concentration of 10 μM for four hours. Endogenous PDE3A was immunoprecipitated and immunoblotted for V5 to identify novel interaction with SIRT7 and SLFN12 (upper two panels). Immunoprecipitate input was immunoblotted for PDE3A and V5 (lower two panels). V5-SLFN12 was undetectable in whole cell lysate.
FIG. 20 is an immunoblot showing confirmation of mass spectrometric results herein using affinity reagents.
HeLa cells were transfected with ORF overexpression constructs expressing V5-tagged SIRT7, V5-tagged SLFN12, or V5-tagged GFP. ORF expression constructs were obtained from the TRC (clone IDs: TRCN0000468231, TRCN0000476272, ccsbBroad304_99997). At 72 hours post transfection, cells were treated with 10 μM DNMDP or trequinsin for 4 hours followed by lysis using the ModRipa lysis buffer and immunoprecipitation of PDE3A. For each condition, 2 mg total protein lysate was incubated with 1 μg of anti-PDE3A antibody at 4° C. overnight, after which 7.5 μl each of Protein A- and Protein G-Dynabeads (Life Technologies 10001D and 10003D) were added and incubated for another 1 hour. Beads were washed and bound proteins were eluted with 30 μl of LDS PAGE gel loading buffer. Input (˜60 μg total protein lysate) and IP products were resolved on 4-12% Tris-Glycine PAGE gels and immunoblotted with an anti-V5 antibody (Life Technologies R96205, 1:5000), the Bethyl anti-PDE3A antibody (1:1000), and secondary antibodies from LiCOR Biosciences (Cat.#926-32210 and 926068021, each at 1:10,000). Blots were washed and imaged using a LiCOR Odyssey infrared imager.

PDE3A(677-1141) = biological target: T2, PDE3A(677-1141) (Homo sapiens, UniProt Q14432); assay: Differential scanning fluorimetry (DSF) binding; details: 5 μM protein, 100 μM compound
T2 construct: purified PDE3A catalytic domain, PDE3A(677-1141)
T2 sequence (Q14432 677-1141): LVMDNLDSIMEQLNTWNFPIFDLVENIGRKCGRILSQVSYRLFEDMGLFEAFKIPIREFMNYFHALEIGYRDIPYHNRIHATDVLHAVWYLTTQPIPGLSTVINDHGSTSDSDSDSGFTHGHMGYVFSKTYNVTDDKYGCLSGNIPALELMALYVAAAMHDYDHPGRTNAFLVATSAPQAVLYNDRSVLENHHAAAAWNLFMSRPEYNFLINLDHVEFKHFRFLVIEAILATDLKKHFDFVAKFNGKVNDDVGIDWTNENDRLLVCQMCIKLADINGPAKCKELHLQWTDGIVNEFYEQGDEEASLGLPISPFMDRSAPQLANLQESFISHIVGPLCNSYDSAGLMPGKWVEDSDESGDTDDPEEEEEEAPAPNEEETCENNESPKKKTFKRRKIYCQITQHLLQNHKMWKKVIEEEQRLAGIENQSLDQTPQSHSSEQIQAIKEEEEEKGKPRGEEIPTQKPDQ
Procedure: Binding buffer: 20 mM Hepes pH 7.4, 100 μM TCEP, 1 mM MgCl2, 150 mM NaCl.

HeLa cells [3] = assay: DNMDP cytotoxicity after targeting PDE3A locus using CRISPR; assay type: cell-based; details: HeLa infected with Cas9 and sgRNAs against PDE3A
Procedure: FIG. 11A is a Western blot. HeLa cells were infected with Cas9 and indicated guide RNAs (sgRNA) against PDE3A. Western blots were probed for PDE3A at indicated time points. FIG. 11B is a bar graph showing percent rescue of HeLa cells that were infected with indicated sgRNAs for two weeks and treated with 1 μM of 6-(4-(diethylamino)-3-nitrophenyl)-5-methyl-4,5-dihydropyridazin-3(2H)-one (DNMDP) for 48 hours. Percent rescue was normalized to the Cas9-only control. FIG. 11C is a plot showing viability of cells infected with indicated sgRNAs and treated with various concentrations of 6-(4-(diethylamino)-3-nitrophenyl)-5-methyl-4,5-dihydropyridazin-3(2H)-one (DNMDP).
Based on the observations that DNMDP-sensitive cells expressed high levels of PDE3A, and that DNMDP competed with non-cytotoxic inhibitors for PDE3A binding, it was hypothesized that DNMDP mediated its cytotoxic phenotype through the interaction with PDE3A and that PDE3A abundance was a direct cellular determinant of DNMDP sensitivity. To validate this hypothesis, the effect of reducing levels of PDE3A on the response to DNMDP was tested. […] In an independent approach using an siRNA smart-pool containing four different siRNAs targeting PDE3A, PDE3A expression was reduced in HeLa cell line with a maximum efficiency of 70% between 24 and 72 hours after transfection. […]

PDE3A = PDE3A (Homo sapiens, UniProt Q14432); assay: Linker-affinity purification of molecular target of DNMDP and immunoblotting; assay type: binding; design: Immunoprecipitation of endogenous PDE3A in HeLa cells; endogenous in cells; host or cells: HeLa; details: HeLa cell lysate, competitor 10 μM, immunoblot for PDE3A
Sequence of PDE3A (Q14432 whole entry): as the sequence (Q14432 whole entry) above
Procedure: To identify the molecular target of DNMDP, an affinity purification was performed using an (R)-des-nitro-DNMDP solid-phase tethered linker analogue (FIG. 10A) incubated with HeLa cell lysate. […] It was competed for the molecular target by adding either an excess of trequinsin or separate enantiomers of DNMDP, where only the (R)-enantiomer was cytotoxic. […] Binding of PDE3A to the linker analogue was blocked by both trequinsin and (R)-DNMDP, but not by the non-cytotoxic enantiomer (S)-[…]. 9C). Thus both trequinsin and (R)-DNMDP prevented the binding of PDE3A to the tethered DNMDP analogue, and it was concluded that both molecules bind PDE3A directly. HeLa cells were washed with ice-cold PBS before lysed with NP-40 lysis buffer (150 mM NaCl, 10% glycerol, 50 mM Tris-Cl pH 8.0, 50 mM MgCl2, 1% NP-40) supplemented with EDTA-free protease inhibitors (Roche) and phosphatase inhibitor mixtures I and II (Calbiochem). […] Samples were washed three times with lysis buffer containing corresponding compound concentrations of 10 μM. Proteins bound to Affi-Gel 102 resin were reduced, denatured, and separated using Tris-Glycine gels (Novex) and transferred to nitrocellulose membranes using the iBlot transfer system (Novex). Membranes were incubated overnight at 4° C. with primary antibodies against PDE3A (1:1000, Bethyl). […]

CCCc1nc(C)c2c(=O)[nH]c(-c3cc(S(=O)(=O)N4CCN(CC)CC4)ccc3OCC)nn12 [vardenafil, 4-[2-ethoxy-5-(4-ethylpiperazin-1-yl)sulfonyl-phenyl]-9-methyl-7-propyl-3,5,6,8-tetrazabicyclo[4.3.0]nona-3,7,9-trien-2-one]
rescue of DNMDP cytotoxicity / competition with DNMDP (HeLa cells [1]): not effective competitors

CCN(CC)c1ccc(C2=NNC(=O)C[C@@H]2C)cc1[N+](=O)[O-] [(S)-DNMDP]
effect on HeLa cell viability / cytotoxicity (HeLa cells [2]): non-cytotoxic

CN(C(=O)CCCOc1ccc2[nH]c(=O)ccc2c1)C1CCCCC1 [cilostamide]
rescue of DNMDP cytotoxicity / competition with DNMDP (HeLa cells [1]): able to rescue DNMDP cytotoxicity in a dose-dependent manner

CCN(CCOCCOCCNC(=O)OC(C)(C)C)c1ccc(C2=NNC(=O)C[C@H]2C)cc1 [DNMDP-2L, tert-butyl (R)-(2-(2-(2-(ethyl(4-(4-methyl-6-oxo-1,4,5,6-tetrahydropyridazin-3-yl)phenyl)amino)ethoxy)ethoxy)ethyl)carbamate]
rescue of DNMDP cytotoxicity / competition with DNMDP (HeLa cells [1]): same DNMDP cytotoxicity rescue phenotype as non-cytotoxic PDE3 inhibitors

CCCc1nn(C)c2c(=O)[nH]c(-c3cc(S(=O)(=O)N4CCN(C)CC4)ccc3OCC)nc12 [sildenafil, 1-[4-ethoxy-3-(6,7-dihydro-1-methyl-7-oxo-3-propyl-1H-pyrazolo[4,3-d]pyrimidin-5-yl)phenylsulfonyl]-4-methylpiperazine]
rescue of DNMDP cytotoxicity / competition with DNMDP (HeLa cells [1]): not effective competitors

O=C1CN2Cc3c(ccc(Cl)c3Cl)N=C2N1 [anagrelide, 6,7-dichloro-1,5-dihydroimidazo (2,1-b)quinazolin-2(3H)-one]
PDE3A and SLFN12 complex formation (PDE3A and SLFN12): weakly
Tm (° C.) (PDE3A(677-1141)): 56.6 ± 0.0 °C
ΔTm at 100 µM (PDE3A(677-1141)): 4.2 °C

Cc1[nH]c(=O)c(C#N)cc1-c1ccncc1 [milrinone, 2-methyl-6-oxo-1,6-dihydro-3,4′-bipyridine-5-carbonitrile]
rescue of cell death induced by DNMDP, rank in bioactives screen (HeLa cells [1]): three most potent compounds
rescue of DNMDP cytotoxicity / competition with DNMDP (HeLa cells [1]): able to rescue DNMDP cytotoxicity in a dose-dependent manner

C[C@@H]1CC(=O)NN=C1c1ccc(N2CCOCC2)cc1 [Compound 3]
rescue of toxicity by PDE3A sgRNA2 and sgRNA3 (HeLa cells [3]): significant rescue of toxicity

CC(C)C(=O)c1c(C(C)C)nn2ccccc12 [idubulast]
rescue of DNMDP cytotoxicity / competition with DNMDP (HeLa cells [1]): not effective competitors

CCN(CC)c1ccc(C2=NNC(=O)C[C@H]2C)cc1[N+](=O)[O-] [(R)-DNMDP, (R)-6-(4-(diethylamino)-3-nitrophenyl)-5-methyl-4,5-dihydropyridazin-3(2H)-one]
blocking of binding of PDE3A to the tethered linker analogue (PDE3A): blocked
effect on HeLa cell viability / cytotoxicity (HeLa cells [2]): cytotoxic
fold lower EC50 compared to the (S)-enantiomer (HeLa cells [2]): 500 fold

O=C1CCc2cc(OCCCCc3nnnn3C3CCCCC3)ccc2N1 [cilostazol, 6-[4-(1-cyclohexyl-1H-tetrazol-5-yl)butoxy]-3,4-dihydro-2(1H)-quinolinone]
rescue of cell death induced by DNMDP, rank in bioactives screen (HeLa cells [1]): three most potent compounds
